Measured values published in PMC6010098, “Synthesis, antitumour and antioxidant activities of novel α,β-unsaturated ketones and related heterocyclic analogues: EGFR inhibition and molecular modelling study” (Journal of Enzyme Inhibition and Medicinal Chemistry, 2018).
Like-named read-outs stand apart in the source and are kept apart here.

Columns and labels:
PC-3 cells = assay: MTT antitumour assay, PC-3; type: cell-based; conditions: PC-3; MTT; human prostate cancer cell line; mean ± SD, n = 3
Method: (§1) The evaluation of the antitumour activity was performed using tetrazolium salt MTT (3-(4,5-dimethyl-2-thiazolyl)-2,5-diphenyl-2H-tetrazolium bromide) assay as reported[62]^,[63].
(§2) The designed compounds were evaluated for their in vitro antitumour effects via the standard 3-(4,5-dimethylthiazol-2-yl)-2,5-diphenyltetrazolium bromide (MTT) method against a panel of four human tumour cell lines; namely, hepatocellular carcinoma cell line (HepG2), breast cancer cell line (MCF-7), human cervical cancer cell line (HeLa), and prostate cancer cell line (PC-3)[62]^,[63]^,[72]. The antitumour activities of the designed compounds 4–12, along with that of the reference drugs 5-FU and afatinib are shown in Table 1.

MCF-7 cells = assay: MTT antitumour assay, MCF-7; type: cell-based; conditions: MCF7, human breast adenocarcinoma cell line, mean ± SD, n = 3
Method: as §1, §2

HeLa cells = assay: MTT antitumour assay, HeLa; type: cell-based; conditions: human cervical epithelioid carcinoma cell line, mean ± SD, n = 3
Method: as §1
as §2, with “(PC-3)[62]^,[63]^,[72].” for “(PC-3)[62]^,[63]^,[72]. The antitumour activities of the designed compounds 4–12, along with that of the reference drugs 5-FU and afatinib are shown in Table 1.”

HepG2 cells = assay: MTT antitumour assay, HepG2; type: cell-based; conditions: human hepato-cellular carcinoma cell line, mean ± SD, n = 3
Method: as §1, §2

EGFR kinase = EGFR kinase (Homo sapiens, UniProt P00533); assay: ELISA-based EGFR kinase inhibition assay; conditions: for inhibition at 0.15 µM: read-out: % Inhibition EGFR, 0.15 μM; for inhibition at 0.31 µM: read-out: % Inhibition EGFR, 0.31 μM; for inhibition at 0.625 µM: read-out: % Inhibition EGFR, 0.625 μM; for inhibition at 1.25 µM: read-out: % Inhibition EGFR, 1.25 μM; for inhibition at 2.5 µM: read-out: % Inhibition EGFR, 2.5 μM; for inhibition at 5 µM: read-out: % Inhibition EGFR, 5.0 μM; for inhibition at 10 µM: read-out: % Inhibition EGFR, 10.0 μM; for Conc. (Average), ELISA read-out: duplicate wells, standards in ng/ml, cont 134.9
EGFR kinase, sequence (P00533 25-1210): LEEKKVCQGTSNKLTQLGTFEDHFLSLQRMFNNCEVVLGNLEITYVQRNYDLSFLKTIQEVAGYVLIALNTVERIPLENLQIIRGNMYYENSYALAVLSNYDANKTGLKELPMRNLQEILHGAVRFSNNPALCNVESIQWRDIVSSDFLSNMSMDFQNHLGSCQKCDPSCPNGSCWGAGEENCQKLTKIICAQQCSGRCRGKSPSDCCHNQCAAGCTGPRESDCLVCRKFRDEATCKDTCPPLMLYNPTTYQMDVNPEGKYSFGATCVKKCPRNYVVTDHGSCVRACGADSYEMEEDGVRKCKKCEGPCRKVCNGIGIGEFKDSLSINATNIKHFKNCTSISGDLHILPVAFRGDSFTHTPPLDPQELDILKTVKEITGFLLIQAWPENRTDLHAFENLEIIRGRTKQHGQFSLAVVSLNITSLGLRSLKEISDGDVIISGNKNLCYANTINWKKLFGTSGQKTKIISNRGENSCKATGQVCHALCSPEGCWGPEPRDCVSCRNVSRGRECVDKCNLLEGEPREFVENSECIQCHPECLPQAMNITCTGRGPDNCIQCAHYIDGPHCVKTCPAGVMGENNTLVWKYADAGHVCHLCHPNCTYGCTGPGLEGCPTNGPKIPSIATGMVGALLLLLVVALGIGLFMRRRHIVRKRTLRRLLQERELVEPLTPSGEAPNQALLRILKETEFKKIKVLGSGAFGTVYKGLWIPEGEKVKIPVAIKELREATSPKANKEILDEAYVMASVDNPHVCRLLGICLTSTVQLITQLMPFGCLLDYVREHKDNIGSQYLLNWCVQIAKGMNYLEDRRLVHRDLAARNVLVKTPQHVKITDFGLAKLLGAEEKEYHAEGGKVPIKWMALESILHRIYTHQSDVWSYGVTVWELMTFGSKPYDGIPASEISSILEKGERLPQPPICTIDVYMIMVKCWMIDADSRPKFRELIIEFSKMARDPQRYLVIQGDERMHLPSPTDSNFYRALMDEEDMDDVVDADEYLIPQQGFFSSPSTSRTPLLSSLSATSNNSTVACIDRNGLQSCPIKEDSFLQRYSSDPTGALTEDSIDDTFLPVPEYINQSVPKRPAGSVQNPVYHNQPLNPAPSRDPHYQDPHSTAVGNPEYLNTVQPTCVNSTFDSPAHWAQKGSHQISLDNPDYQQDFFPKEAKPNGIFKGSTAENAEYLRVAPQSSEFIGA

[1] = ABTS radical cation scavenging (antioxidant) assay; conditions: 20 µl of 1 mg/ml test sample (L-ascorbic acid 20 µl, 2 mM)
Method: The absorbance (Acontrol) of a green-blue solution (ABTS^+ radical solution) resulted from a mixture of ABTS and manganese dioxide (MnO2) and was recorded at λmax 734 nm, according to the reported procedure[64]^,[65]. The absorbance (Atest) was measured upon the addition of 20 µl of 1 mg/ml solution of the test sample in spectroscopic grade methanol/phosphate buffer (1:1 v/v) to the ABTS solution. The decrease in absorbance is expressed as % inhibition, which can be calculated from the following equation: % inhibition = Acontrol-Atest/Acontrol×100.
L-Ascorbic acid 20 µl (2 mM) solution was used as standard antioxidant (positive control). A blank sample was run using only methanol/phosphate buffer (1:1), while the negative control was run with ABTS and the methanol/phosphate buffer.
The assay is based on measuring the ability of the tested compounds to scavenge the long-life radical cation of ABTS[22]^,[43]^,[64]^,[65].

[2] = test system: HepG2, MCF-7, HeLa, and PC-3 cancer cell lines; assay: MTT antitumour assay, range over the four cell lines; type: cell-based, human; conditions: range over HepG2, MCF-7, HeLa, PC-3 (and over the compounds named), read-out: IC50 range against the tested cell lines
Method: as §1, §2

| SMILES | IC50 (PC-3 cells) | melting point | IC50 (MCF-7 cells) | IC50 (HeLa cells) | IC50 (HepG2 cells) | IC50 (EGFR kinase) | % Inhibition EGFR (EGFR kinase; 0.15 μM) | % Inhibition EGFR (EGFR kinase; 0.31 μM) | % Inhibition EGFR (EGFR kinase; 0.625 μM) | % Inhibition EGFR (EGFR kinase; 1.25 μM) | % Inhibition EGFR (EGFR kinase; 2.5 μM) | % Inhibition EGFR (EGFR kinase; 5.0 μM) | % Inhibition EGFR (EGFR kinase; 10.0 μM) | inhibition at 0.15 µM (EGFR kinase) | inhibition at 0.31 µM (EGFR kinase) | inhibition at 0.625 µM (EGFR kinase) | inhibition at 1.25 µM (EGFR kinase) | inhibition at 2.5 µM (EGFR kinase) | inhibition at 5 µM (EGFR kinase) | %Inhibition of the ABTS radical cation [1] | further results |
| --- | --- | --- | --- | --- | --- | --- | --- | --- | --- | --- | --- | --- | --- | --- | --- | --- | --- | --- | --- | --- | --- |
| Cc1ccc(-c2cc(-c3ccc(OC4CCCC4)cc3)c(C#N)c(=O)[nH]2)cc1 [compound 10, 4-(4-(cyclopentyloxy)phenyl)-2-oxo-6-(4-methylphenyl)-1,2-dihydropyridine-3-carbonitrile] | 41.9 ± 2.87 µM | 278 to 280 °C | 70.9 ± 4.98 µM | 51.2 ± 3.82 µM | 80.9 ± 5.34 µM |  |  |  |  |  |  |  |  |  |  |  |  |  |  |  |  |
| Cc1ccc(C2=NN(c3ccccc3)C(c3ccc(OC4CCCC4)cc3)C2)cc1 (stereo not shown) [8b, 5-(4-(Cyclopentyloxy)phenyl)-1-phenyl-3-(4-methylphenyl)-4,5-dihydro-1H-pyrazole] | 7.8 ± 0.56 µM |  | 5.6 ± 0.36 µM | 5.5 ± 0.45 µM | 7.2 ± 0.24 µM | 2.16 µM | 6.96% | 26.25% | 43.85% | 47.28% | 50.51% | 60.72% | 64.88% | 6.97% | 26.3% | 43.9% | 47.3% | 50.5% | 60.7% | 88.5% | inhibition at 10 µM (EGFR kinase): 64.9%; Conc. (Average), ELISA read-out (EGFR kinase; sample at 0.15uM): 125.5; Conc. (Average), ELISA read-out (EGFR kinase; sample at 0.31uM): 99.48; Conc. (Average), ELISA read-out (EGFR kinase; sample at 0.62uM): 75.74; Conc. (Average), ELISA read-out (EGFR kinase; sample at 1.25uM): 71.11; Conc. (Average), ELISA read-out (EGFR kinase; sample at 2.5uM): 66.76; Conc. (Average), ELISA read-out (EGFR kinase; sample at 5uM): 52.98; Conc. (Average), ELISA read-out (EGFR kinase; sample at 10uM): 47.37; IC50 ([2]; Homo sapiens): 5.5 to 18.1 µM; IC50 [2]: 5.5 to 7.8 µM |
| O=C(O)c1cc(C=Cc2ccc(OC3CCCC3)cc2)nc2ccc(Br)cc12 [12a, 6-Bromo-2-(4-(cyclopentyloxy)styryl)quinoline-4-carboxylicacid] | > 100 µM | > 300 °C | 87.1 ± 5.24 µM | 89.4 ± 4.89 µM | 85.4 ± 5.31 µM |  |  |  |  |  |  |  |  |  |  |  |  |  |  |  |  |
| CN1CCC(=O)C(=Cc2ccc(OC3CCCC3)cc2)C1 [6a, 3-(4-(Cyclopentyloxy)benzylidene)-1-methylpiperidin-4-one] | 10.5 ± 0.97 µM |  | 18.1 ± 1.58 µM | 9.4 ± 0.98 µM | 15.9 ± 1.02 µM | 4.66 µM | 6.67% | 18.16% | 26.84% | 34.55% | 44.35% | 50.34% | 57.65% | 6.67% | 18.2% | 26.8% | 34.6% | 44.4% | 50.3% | 54.3% | inhibition at 10 µM (EGFR kinase): 57.7%; Conc. (Average), ELISA read-out (EGFR kinase; sample at 0.15uM): 125.9; Conc. (Average), ELISA read-out (EGFR kinase; sample at 0.31uM): 110.4; Conc. (Average), ELISA read-out (EGFR kinase; sample at 0.62uM): 98.68; Conc. (Average), ELISA read-out (EGFR kinase; sample at 1.25uM): 88.29; Conc. (Average), ELISA read-out (EGFR kinase; sample at 2.5uM): 75.07; Conc. (Average), ELISA read-out (EGFR kinase; sample at 5uM): 66.98; Conc. (Average), ELISA read-out (EGFR kinase; sample at 10uM): 57.13; IC50 ([2]; Homo sapiens): 5.5 to 18.1 µM |
| CCOC(=O)C1=C(C)OC(N)=C(C#N)C1c1ccc(OC2CCCC2)cc1 (stereo not shown) [compound 7, ethyl 6-amino-5-cyano-4-(4-(cyclopentyloxy)phenyl)-2-methyl-4H-pyran-3-carboxylate] | 13.3 ± 1.26 µM |  | 7.5 ± 0.54 µM | 10.3 ± 1.13 µM | 8 ± 0.38 µM | 1.6 µM | 8.22% | 31.78% | 43.27% | 49.65% | 52.86% | 65.98% | 72.78% | 8.23% | 31.8% | 43.3% | 49.7% | 52.9% | 66% | 75.8% | inhibition at 10 µM (EGFR kinase): 72.8%; Conc. (Average), ELISA read-out (EGFR kinase; sample at 0.15uM): 123.8; Conc. (Average), ELISA read-out (EGFR kinase; sample at 0.31uM): 92.02; Conc. (Average), ELISA read-out (EGFR kinase; sample at 0.62uM): 76.52; Conc. (Average), ELISA read-out (EGFR kinase; sample at 1.25uM): 67.92; Conc. (Average), ELISA read-out (EGFR kinase; sample at 2.5uM): 63.59; Conc. (Average), ELISA read-out (EGFR kinase; sample at 5uM): 45.89; Conc. (Average), ELISA read-out (EGFR kinase; sample at 10uM): 36.71; IC50 ([2]; Homo sapiens): 5.5 to 18.1 µM |
| O=C(O)c1cc(C=Cc2ccc(OC3CCCC3)cc2)nc2ccc(F)cc12 [12b, 2-(4-(Cyclopentyloxy)styryl)-6-fluoroquinoline-4-carboxylicacid] | 69.4 ± 4.32 µM | > 300 °C | 48.1 ± 3.25 µM | 66.8 ± 4.07 µM | 30.8 ± 2.07 µM |  |  |  |  |  |  |  |  |  |  |  |  |  |  | 50.0% |  |
| Cc1ccc(-c2cc(-c3ccc(OC4CCCC4)cc3)c(C#N)c(N)n2)cc1 [compound 11, 2-amino-4-(4-(cyclopentyloxy)phenyl)-6-(4-methylphenyl)nicotinonitrile] | 87.7 ± 5.41 µM | 272 to 273 °C | 97.3 ± 5.51 µM | 62.4 ± 3.8 µM | 92.9 ± 5.82 µM |  |  |  |  |  |  |  |  |  |  |  |  |  |  |  |  |
| Cc1ccc(C2=NOC(c3ccc(OC4CCCC4)cc3)C2)cc1 (stereo not shown) [compound 9, 5-(4-(cyclopentyloxy)phenyl)-3-(4-methylphenyl)-4,5-dihydroisoxazole] | 50.1 ± 3.55 µM | 120 to 122 °C | 58.4 ± 4.5 µM | 46.2 ± 3.3 µM | 62.3 ± 4.1 µM |  |  |  |  |  |  |  |  |  |  |  |  |  |  | 60.0% |  |
| Cc1ccc(C2=NNC(c3ccc(OC4CCCC4)cc3)C2)cc1 (stereo not shown) [8a, 5-(4-(Cyclopentyloxy)phenyl)-3-(4-methylphenyl)-4,5-dihydro-1H-pyrazole] | 12.7 ± 1.13 µM | 145 to 146 °C | 29.3 ± 1.97 µM | 16.2 ± 1.36 µM | 18.9 ± 1.35 µM |  |  |  |  |  |  |  |  |  |  |  |  |  |  | 53.0% |  |
